From publication PMC9186351, “Discovery of N-quinazolinone-4-hydroxy-2-quinolone-3-carboxamides as DNA gyrase B-targeted antibacterial agents” (Journal of Enzyme Inhibition and Medicinal Chemistry, 2022)
In brackets after ≈: the same amount, converted by molar mass. Several values for one entry are separate records, joined by “and”; a condition that tells them apart may be missing. Equal entries are not always repeated. Where two headings read alike, the source gives them in different places.

Assays:
S. aureus GyrB = biological target: T1, S. aureus GyrB (Staphylococcus aureus, UniProt P0A0K8); test: S. aureus GyrB (Gyrase ATPase) inhibition assay, ADP-Glo; format: biochemical; settings: for inhibition at 10 µM: read-out: GyrB inhibition rate (%) at 10 μM; for IC50: IC50 for GyrB (µM, mean ± SD), S. aureus Gyrase ATPase inhibition, average of duplicates
T1 construct: purchased Inspiralis Ltd., Norwich, UK
T1 sequence (P0A0K8 whole entry): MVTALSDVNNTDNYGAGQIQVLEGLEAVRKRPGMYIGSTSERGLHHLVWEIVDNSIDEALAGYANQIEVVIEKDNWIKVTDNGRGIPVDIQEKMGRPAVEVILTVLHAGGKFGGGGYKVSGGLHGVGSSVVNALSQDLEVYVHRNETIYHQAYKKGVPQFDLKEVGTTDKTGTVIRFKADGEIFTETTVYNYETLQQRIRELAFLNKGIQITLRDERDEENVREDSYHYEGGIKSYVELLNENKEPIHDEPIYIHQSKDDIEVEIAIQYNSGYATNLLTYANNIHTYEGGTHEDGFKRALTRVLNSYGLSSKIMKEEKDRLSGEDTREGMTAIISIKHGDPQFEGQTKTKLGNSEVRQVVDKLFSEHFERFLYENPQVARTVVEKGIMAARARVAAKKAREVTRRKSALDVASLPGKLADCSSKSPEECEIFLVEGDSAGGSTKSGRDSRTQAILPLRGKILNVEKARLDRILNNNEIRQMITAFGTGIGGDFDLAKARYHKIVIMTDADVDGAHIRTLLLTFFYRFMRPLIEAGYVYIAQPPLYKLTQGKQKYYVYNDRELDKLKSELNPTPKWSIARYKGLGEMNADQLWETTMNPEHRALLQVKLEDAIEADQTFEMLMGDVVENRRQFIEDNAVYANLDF
T1 sequence (P20831 whole entry, further chain): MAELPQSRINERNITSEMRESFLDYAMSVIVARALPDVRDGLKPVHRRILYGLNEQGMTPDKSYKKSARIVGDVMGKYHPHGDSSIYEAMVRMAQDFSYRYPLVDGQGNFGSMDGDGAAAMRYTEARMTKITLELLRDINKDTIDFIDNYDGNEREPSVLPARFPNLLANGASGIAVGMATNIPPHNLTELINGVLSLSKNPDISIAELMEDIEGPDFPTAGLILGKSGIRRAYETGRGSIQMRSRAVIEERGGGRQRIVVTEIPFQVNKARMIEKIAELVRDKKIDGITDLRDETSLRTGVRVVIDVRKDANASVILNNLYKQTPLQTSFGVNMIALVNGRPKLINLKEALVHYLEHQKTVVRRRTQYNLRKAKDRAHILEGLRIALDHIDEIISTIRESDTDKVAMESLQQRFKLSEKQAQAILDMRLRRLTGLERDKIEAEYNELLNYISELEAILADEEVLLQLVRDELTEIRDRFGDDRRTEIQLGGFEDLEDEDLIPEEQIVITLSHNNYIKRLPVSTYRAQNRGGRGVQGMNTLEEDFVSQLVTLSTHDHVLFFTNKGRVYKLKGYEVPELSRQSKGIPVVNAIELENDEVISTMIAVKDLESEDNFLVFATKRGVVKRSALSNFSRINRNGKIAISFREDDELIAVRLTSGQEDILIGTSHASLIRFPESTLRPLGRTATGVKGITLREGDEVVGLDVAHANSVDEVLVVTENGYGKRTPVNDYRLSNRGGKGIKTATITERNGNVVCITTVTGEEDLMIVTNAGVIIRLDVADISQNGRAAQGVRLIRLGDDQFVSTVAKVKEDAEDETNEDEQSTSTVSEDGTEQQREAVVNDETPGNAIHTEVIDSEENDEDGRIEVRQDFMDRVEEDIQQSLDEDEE
Description: The IC50 values for S. aureus GyrB were determined according to our previously reported protocol.[16] For this assay, the reaction mixture (10 μL) consisted of 5 nM S. aureus Gyrase (Inspiralis Ltd., Norwich, UK), assay buffer [40 mM HEPES-KOH (pH 7.6), 10 mM magnesium acetate, 10 mM dithiothreitol, 50 g/L BSA, and 500 mM potassium glutamate], the test compound (0.01–100 μM), 1% DMSO, 10 nM linear pBR322 DNA, and […]. The target compound was dissolved in DMSO (10 mM). A series of dilutions (0.1–1000 μM) were prepared from the stock solution with the assay buffer and DMSO. The dilutions (1 μL) were respectively added to the PCR tubes along with the buffer (7 μL), the linear pBR322 DNA (0.5 μL), S. aureus Gyrase (0.5 μL), and ATP (1 μL). The PCR tubes were sealed and incubated at 37 °C for 30 min. The ADP-Glo reagent (40 μL) was added to stop the reaction and use up the remaining ATP.
The detection reagent (50 μL) was then added and mixed. After 5 min, the mixture in each PCR tube was put in the well of a 96-well plate and its luminescence was measured by the BioTek Synergy 2 microplate reader. The activity values (%) of S. aureus Gyrase treated by the test compound at different concentrations were determined based on the luminescence. GraphPad Prism version 5 software (GraphPad Software Inc., La Jolla, CA) was used to calculate the IC50 values.

[1] = system: methicillin-sensitive S. aureus (MSSA); test: MIC by broth microdilution, MSSA isolates; format: cell-based; settings: Staphylococcus aureus
Description: All of the bacterial strains used in this study were obtained from the Collection Centre of Pathogen Microorganism of Chinese Academy of Medical Sciences (CAMS-CCPM-A) in China. All of the isolates were stored at −80 °C and streaked on tryptic soy agar (TSA) plates to obtain overnight cultures. The MICs of the test compounds were determined by the broth microdilution method in accordance with the Clinical and Laboratory Standards Institute (CLSI) guidelines.[20] Cation-adjusted Mueller-Hinton broth (CAMHB) was used as the growth medium for MIC assays. Briefly, 100 μL of serially diluted compounds (starting concentrations were 64 μg/mL) in CAMH broth were added to the wells of 96-well microtiter plates. Then, 10 µL of 5 × 10^6 CFU/mL bacterial culture was added to each well. […] The MIC was defined as the lowest concentration of a compound that inhibited visual growth of the bacteria. Vancomycin was set as the positive control for this assay.

[2] = ATCC 29213 / BAA-1708 / BAA-976 / MSSA, ATCC 29213, 15, 18-3, BAA976, BAA1708, span over isolates, read-out: MIC over the five MSSA isolates
[3] = ATCC 29213 / MSSA, MSSA ATCC 29213, read-out: MIC
[4] = BAA-976 / MSSA, MSSA BAA976, read-out: MIC
[5] = BAA-1708 / MSSA, MSSA BAA1708, read-out: MIC

Compound	inhibition at 10 µM (S. aureus GyrB)	melting point	IC50 (S. aureus GyrB)	other results
Cc1noc(NC(=O)c2c(O)c3cccc4c3n(c2=O)CCC4)c1C [AE-641/00628057]	7%			
O=C(Nc1ccccc1-c1ccccc1)c1c(O)c2cccc3c2n(c1=O)CCC3 [AE-641/00629040]	11%			
CCCCCNC(=O)c1c(O)c2ccccc2n(C)c1=O [AG-690/11232717]	13%			
CCCCCCn1c(=O)c(C(=O)Nc2ccccc2Br)c(O)c2ccccc21 [AG-690/11232728]	12%			
CCCCCC(=O)NNC(=O)c1c(O)c2ccccc2n(CCC)c1=O [AG-690/11232780]	3%			
CCCCCCn1c(=O)c(C(=O)Nc2ccc(Cl)cn2)c(O)c2ccccc21 [AG-690/11557825]	6%			
CCn1c(=O)c(C(=O)NNC(=O)c2ccccc2Br)c(O)c2ccccc21 [AG-690/11765298]	45%			
CCn1c(=O)c(C(=O)NNS(=O)(=O)c2ccc(Br)cc2)c(O)c2ccccc21 [AG-690/11765340]	10%			
C=CCn1c(=O)c(C(=O)NNC(=O)Cc2ccncc2)c(O)c2ccccc21 [AG-690/36469055]	15%			
CCCCCCn1c(=O)c(C(=O)Nc2nc(C)cs2)c(O)c2ccccc21 [AG-690/36956124]	10%			
CCCn1c(=O)c(C(=O)NNC(=O)Cc2ccccc2)c(O)c2ccccc21 [AG- 690/36956135]	6%			
CCCCCc1nc2ccc(Cl)cc2c(=O)n1NC(=O)c1c(O)c2ccccc2n(CC)c1=O [f2, N-(6-chloro-4-oxo-2-pentylquinazolin-3(4H)-yl)-1-ethyl-4-hydroxy-2-oxo-1,2-dihydroquinoline-3-carboxamide]		141.5 to 143.1 °C	1.58 ± 0.06 µM	
CCCCCc1nc2ccc(C)cc2c(=O)n1NC(=O)c1c(O)c2ccccc2n(CC)c1=O [f3, N-(6-methyl-4-oxo-2-pentylquinazolin-3(4H)-yl)-1-ethyl-4-hydroxy-2-oxo-1,2-dihydroquinoline-3-carboxamide]		160.6 to 162.3 °C	0.83 ± 0.11 µM	
CCCCCc1nc2ccc(OC)cc2c(=O)n1NC(=O)c1c(O)c2ccccc2n(CC)c1=O [f4, N-(6-methoxy-4-oxo-2-pentylquinazolin-3(4H)-yl)-1-ethyl-4-hydroxy-2-oxo-1,2-dihydroquinoline-3-carboxamide]		98.7 to 99.9 °C	0.31 ± 0.07 µM	MIC [1, 2]: ≥ 32 µg/mL; MIC [1, 3]: > 64 µg/mL; MIC [1, 4]: 32 µg/mL (≈ 67.2 µM); MIC [1, 5]: > 64 µg/mL; MIC ([1]; MSSA, MSSA 15, read-out: MIC): 64 µg/mL (≈ 134 µM); MIC ([1]; MSSA, MSSA 18-3, read-out: MIC): 64 µg/mL (≈ 134 µM)
CCCCCc1nc2ccc(C(F)(F)F)cc2c(=O)n1NC(=O)c1c(O)c2ccccc2n(CC)c1=O [f5, N-(4-oxo-2-pentyl-6-(trifluoromethyl)quinazolin-3(4H)-yl)-1-ethyl-4-hydroxy-2-oxo-1,2-dihydroquinoline-3-carboxamide]		128.3 to 130.2 °C	0.81 ± 0.17 µM	
CCCCCc1nc2cc(Cl)ccc2c(=O)n1NC(=O)c1c(O)c2ccccc2n(CC)c1=O [f6, N-(7-chloro-4-oxo-2-pentylquinazolin-3(4H)-yl)-1-ethyl-4-hydroxy-2-oxo-1,2-dihydroquinoline-3-carboxamide]		128.4 to 130.2 °C	0.83 ± 0.01 µM	
CCCCCc1nc2cc(C)ccc2c(=O)n1NC(=O)c1c(O)c2ccccc2n(CC)c1=O [f7, N-(7-methyl-4-oxo-2-pentylquinazolin-3(4H)-yl)-1-ethyl-4-hydroxy-2-oxo-1,2-dihydroquinoline-3-carboxamide]		167.2 to 168.4 °C	24.4 ± 4.5 µM	
CCCCCc1nc2cc(OC)ccc2c(=O)n1NC(=O)c1c(O)c2ccccc2n(CC)c1=O [f8, N-(7-methoxy-4-oxo-2-pentylquinazolin-3(4H)-yl)-1-ethyl-4-hydroxy-2-oxo-1,2-dihydroquinoline-3-carboxamide]		146.8 to 147.6 °C	7.9 ± 0.1 µM	
CCCCCc1nc2cc(OC)c(OC)cc2c(=O)n1NC(=O)c1c(O)c2ccccc2n(CC)c1=O [f9, N-(6,7-dimethoxy-4-oxo-2-pentylquinazolin-3(4H)-yl)-1-ethyl-4-hydroxy-2-oxo-1,2-dihydroquinoline-3-carboxamide]		172.4 to 174.1 °C	1.06 ± 0.13 µM	
CCCCCc1nc2c(Cl)cccc2c(=O)n1NC(=O)c1c(O)c2ccccc2n(CC)c1=O [f10, N-(8-chloro-4-oxo-2-pentylquinazolin-3(4H)-yl)-1-ethyl-4-hydroxy-2-oxo-1,2-dihydroquinoline-3-carboxamide]		158.6 to 160.4 °C	9.7 ± 2.1 µM	
CCCCCc1nc2c(C)cccc2c(=O)n1NC(=O)c1c(O)c2ccccc2n(CC)c1=O [f11, N-(8-methyl-4-oxo-2-pentylquinazolin-3(4H)-yl)-1-ethyl-4-hydroxy-2-oxo-1,2-dihydroquinoline-3-carboxamide]		142.7 to 144.3 °C	0.77 ± 0.02 µM	
CCCCCc1nc2c(OC)cccc2c(=O)n1NC(=O)c1c(O)c2ccccc2n(CC)c1=O [f12, N-(8-methoxy-4-oxo-2-pentylquinazolin-3(4H)-yl)-1-ethyl-4-hydroxy-2-oxo-1,2-dihydroquinoline-3-carboxamide]		178.3 to 180.1 °C	0.878 µM and 0.88 µM	
CCn1c(=O)c(C(=O)Nn2c(C)nc3ccccc3c2=O)c(O)c2ccccc21 [f13, N-(2-methyl-4-oxoquinazolin-3(4H)-yl)-1-ethyl-4-hydroxy-2-oxo-1,2-dihydroquinoline-3-carboxamide]			1.64 ± 0.23 µM	
CCc1nc2ccccc2c(=O)n1NC(=O)c1c(O)c2ccccc2n(CC)c1=O [f14, N-(2-ethyl-4-oxoquinazolin-3(4H)-yl)-1-ethyl-4-hydroxy-2-oxo-1,2-dihydroquinoline-3-carboxamide]			0.28 ± 0.04 µM	MIC [1, 2]: ≥ 32 µg/mL; MIC [1, 3]: > 64 µg/mL; MIC [1, 4]: 32 µg/mL (≈ 79.1 µM); MIC [1, 5]: 64 µg/mL (≈ 158 µM); MIC ([1]; MSSA, MSSA 15, read-out: MIC): 64 µg/mL (≈ 158 µM); MIC ([1]; MSSA, MSSA 18-3, read-out: MIC): > 64 µg/mL
CCCc1nc2ccccc2c(=O)n1NC(=O)c1c(O)c2ccccc2n(CC)c1=O [f15, N-(4-oxo-2-propylquinazolin-3(4H)-yl)-1-ethyl-4-hydroxy-2-oxo-1,2-dihydroquinoline-3-carboxamide]		158.6 to 160.7 °C	11.9 ± 2.3 µM	
CCCCc1nc2ccccc2c(=O)n1NC(=O)c1c(O)c2ccccc2n(CC)c1=O [f16, N-(2-butyl-4-oxoquinazolin-3(4H)-yl)-1-ethyl-4-hydroxy-2-oxo-1,2-dihydroquinoline-3-carboxamide]		139.8 to 140.5 °C	2.34 ± 0.34 µM	
